# How the values were obtained:
# [1] = system: patient suffering from SAPHO syndrome; experiment: Case report: oral NMN in a patient with SAPHO syndrome, BASFI self-assessment questionnaire; assay type: in vivo, human; conditions: one patient
# Protocol: (§1) This case report investigated the effects of nicotinamide mononucleotide derivatives according to the invention in a patient suffering from SAPHO syndrome. Especially, the effects of nicotinamide mononucleotide (NMN), i.e. compound 001, were investigated. NMN was orally administered at a dose of 500 mg/day, once a day in the morning, for 12 months. The patient reported that SAPHO syndrome manifested with osteitis in the upper right chest area managed with NSAIDs. At the start of the treatment, the patient reported strong pain and swelling (7.5/10) in joints affected by the disease. The patient also suffered from fatigue. In the absence of SAPHO syndrome specific questionnaire, efficacy of the treatment was assessed using self-assessment questionnaires: the Bath Ankylosing Spondylitis Disease Activity Index (BASDAI) which is the gold standard for measuring and following disease activity in Ankylosing Spondylitis, and the Bath Ankylosing Spondylitis Functional Index (BAFSI) for measuring and monitoring functional ability in patients with ankylosing spondylitis. […] Evaluation was performed before start of the treatment, and after 12 months of treatment.
# [2] = system: patient suffering from SAPHO syndrome; experiment: Case report: oral NMN in a patient with SAPHO syndrome, BASDAI self-assessment questionnaire; assay type: in vivo, human; conditions: one patient
# Protocol: as §1
smiles,measurement,setting,value
"NC(=O)c1ccc[n+]([C@@H]2O[C@H](COP(=O)([O-])O)[C@@H](O)[C@H]2O)c1 [NMN, nicotinamide mononucleotide]",BASFI score after NMN,"[1]; 500 mg/day oral once a day, after 12 months, before NMN: 2.4",2.1
same,"BASFI item: physically demanding activities, score","[1]; 500 mg/day oral, after one year treatment, before treatment 7/10",4.5 /10
same,BASDAI score after NMN,"[2]; 500 mg/day oral once a day, after 12 months, before NMN: 5.4, scores of 4 or greater suggest suboptimal control of disease",3
same,"effect on fatigue, pain and swelling of the joints and discomfort (BASDAI items)","[2]; 500 mg/day oral, 12 months, before: pain and swelling 7.5/10, fatigue 6.5/10, discomfort 6.5/10","significantly improved fatigue, pain and swelling of the joints and discomfort"

# — patent publication US20240335466A1, “NICOTINAMIDE MONONUCLEOTIDE DERIVATIVES FOR USE IN THE TREATMENT OF SAPHO SYNDROME” (NUVAMID SA, priority 2021, published 2024)
